Results on four molecules are retold here after US6335159B1 (The Burnham Institute, priority 1988, dated 2002).

SMILES strings stand for the structures.

Type in all cases: cell-based
Assay [1] concerns TR and RAR (RARε plus TRα or TRβ). Put plainly: Cotransfection CAT assay: TR and RARε together with TRE-CAT gene (G17-2 CAT) in F9 and CV-1 cells. The conditions noted are these: only T3 added, TR and RAR cotransfected. The method, then: One possible implication of this finding is that certain genes should be inducible by either hormone (T3) or vitamin (RA) in cells containing both receptors. To zest this hypothesis and to investigate possible positive and/or negative interactions of TR and RAR, both receptors were cotransfected into the same cells together with a TRE-CAT gene. […] Approximately 70% of the maximal activity is observed when only T3 is added. […] In the absence of T3, TR prevents activation of TREs by RARs, while in the presence of T3, TR activates and also allows positive cooperativity with RAR. The dominating regulatory effect can be carried out by both TRα and TRβ on both the RARε (FIG. 9) and the F9 endogenous RAR. Significant repression of RARε activity in F9 cells is observed between RARε: TRα ratios of 1:1 to 4:1.
As shown in FIG. 9(a), 5 μg of PECE-RARε plus 5 μg of PECE-TRα were cotransfected together with 20 μg of G17-2 CAT into F9 cells. As a control, each receptor was also cotransfected with G17-2 CAT individually. Hormones were added as indicated. As shown in FIG. 9(b), 2.5 μg of PECE-TRβ plus 2.5 μg of PECE-RARε were cotransfected with 20 μg of G17-2 CAT into CV-1 cells. As a control, PECE-RARε was also cotransfected with G17-2 individually. Hormones were added as indicated. CAT activity was assayed as described in Example VI.

Assay [2] concerns endogenous F9 cell RAR. Put plainly: CAT assay: reporter plasmid only transfected into F9 cells (endogenous RAR). The conditions noted are these: for induction of CAT activity: G17-2 construct alone. An excerpt:
Two different TREs, one the natural myosin heavy chain (MHC) promoter TRE, Izumo, S., et al., Nature, 334, 539 (1988), and the other a synthetic TRE—G17-2—derived from the rat growth hormone promoter, Glass, C. K., et al., Cell, 54, 313-323 (1988), were chosen, both references are incorporated herein by reference. The estrogen responsive element (ERE) used here is derived from the vitellogenin gene, Klein-Hitpass, L., et al., Cell 46, 1053-1061 (1986). As a convenient assay system a cotransfection CAT assay (chloramphenicol transacetylase) was chosen. When. […] Upon induction, MHC and G17-2-TRE constructs yield very similar levels of CAT activity. However, the MHC-TRE-CAT gene is highly constitutive (high basal level activity) whereas the G17-2 construct functions as an ideal RA inducible gene in that we observe a low basal activity and a more than 30 fold induction of CAT activity by RA (FIG. 6a and b). Similar levels of induction were obtained with TRα. F9 cells have been established as a cellular model for RA dependent differentiation and to contain RAR transcripts. Whether the endogenous F9 RAR can also activate the TRE-CAT genes, by transfecting the […] into F9 cells alone was investigated. […] The high basal level observed with the MHC construct prevents observation of a clear induction effect by the endogenous RAR. […]
F9 cells were cotransfected with 5 μg of the expression vectors PECE-RARε or PECE-TRα and 20 μg of the reporter plasmids G17-2 CAT or MHC-CAT. […] Fold activation is expressed as the ratio of relative CAT activity after hormone induction to relative CAT activity without hormone induction. […]
2×10^6 F9 cells were cultured as monolayer on gelatin-coated dishes in alpha-MEM (GIBCO, Santa Clara, Calif.), supplemented by 20% fetal calf serum (FCS), glutamine: and nucleosides as described in Grover, A., et al., J. Cell Biol. 96, […] (1983) which is incorporated herein by reference. […] For accurate determinations of chloramphenicol acetylation, the separated reaction products were cut out from silica plates and quantified in a scintillation counter. […]

The target in assay [3] is T1, RAER chimaeric protein (RARε with hER DNA-binding domain) (Homo sapiens, UniProt P10826, DEL77-136/INS76TNDKGSMAMESAKETRYCAVCNDYASGYHYGVWSCEGCKAFFKRSIQGHNDYMCPATNQCTIDKNRRKSCQAC).
T1 construct: a 304 bp 5′ untranslated region, the complete open reading frame, and a 55 bp 3′ untranslated region; expressed in transfected cells; host or cells: HeLa cells, PECE-RAER expression vector
T1 sequence (P10826 with tags, fused parts or gaps isoform P10826-2): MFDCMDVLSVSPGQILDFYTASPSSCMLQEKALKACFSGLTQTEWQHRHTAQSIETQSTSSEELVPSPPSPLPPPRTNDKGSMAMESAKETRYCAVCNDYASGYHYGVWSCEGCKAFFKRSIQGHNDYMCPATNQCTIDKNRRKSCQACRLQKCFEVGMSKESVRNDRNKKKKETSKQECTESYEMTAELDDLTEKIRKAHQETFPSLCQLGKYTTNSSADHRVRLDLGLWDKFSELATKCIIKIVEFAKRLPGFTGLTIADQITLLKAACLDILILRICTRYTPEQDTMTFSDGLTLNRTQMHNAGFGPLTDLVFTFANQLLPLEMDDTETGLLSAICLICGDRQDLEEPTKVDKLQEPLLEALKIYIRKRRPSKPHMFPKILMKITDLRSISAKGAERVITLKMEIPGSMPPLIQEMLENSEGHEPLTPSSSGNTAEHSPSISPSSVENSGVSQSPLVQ
The assay can be described thus: Co-transfection CAT assay: RAER chimaeric receptor plus ERE-CAT reporter gene in HeLa cells. The conditions noted are these: only at high concentrations (3×10^−6 M). In general terms: A reporter such as luciferase makes a cellular process visible.
Description: The hybrid receptor was then transfected into susceptible tissue-culture cells together with a reporter gene containing the relevant HRE. The effect of various potential activators of the novel receptor was measured from cells transiently transfected with both genes and grown in the presence and absence of the various ligands.
As a control, cells were treated with calcium phosphate or were transfected with the constitutive pSV2CAT vector. As further controls, cells were also transfected with ERE-CAT and ERE-CAT plus the oestrogen receptor (ER) expression vector pckR2ER and grown in the presence of Est.
After 5 hours, cells were shocked with 10% glycerol for 2 min. Eighteen hours after the start of transfection, steroid hormones or retinoids were added to the medium and cells were incubated for a further 24 hours before harvesting.

For `N[C@@H](Cc1cc(I)c(Oc2ccc(O)c(I)c2)c(I)c1)C(=O)O` [T3], the “CAT activity, percent of the maximal activity” value in assay [1] was “Approximately 70%”. Also, the “induction of CAT activity” value in assay [2] (F9 cells, in the presence of T3) was “no induction”. On to `CC1=C(/C=C/C(C)=C/C=C/C(C)=C/C=O)C(C)(C)CCC1` [retinal], for which, in assay [3], the “induction of CAT gene expression” value is “some inducing effect”. Consider `CC1=C(/C=C/C(C)=C/C=C/C(C)=C/C(=O)O)C(C)(C)CCC1` [retinoic acid], for which the “induction of CAT activity” value in assay [2] (endogenous F9 RAR, in the presence of RA) is on record as 12 fold. Besides, the “RA concentration at which TRE dependent CAT activity can be induced” value in assay [2] (G17-2 construct, F9 RAR, RA tested between 3×10^−11 and 10^−6 M) is reported as approximately 0.1 nM.

As for `CC1=C(/C=C/C(C)=C/C=C/C(C)=C/CO)C(C)(C)CCC1` [retinol], in assay [3], the “induction of CAT gene expression” value is listed as “some inducing effect”.
